Measurements from publication PMC9925730, “Controlled sequential in situ self-assembly and disassembly of a fluorogenic cisplatin prodrug for cancer theranostics” (Nature Communications, 2023).
Where “and” joins values, the source holds several entries; their conditions need not be identical. Identical values can stand only once.

Columns and labels:
s.c. HeLa tumors = test: Chemotherapy of s.c. HeLa tumors in vivo; design: species or system mice; conditions: s.c. HeLa, 2.25 mg kg^−1 Pt i.v. on day 0, 3, 6, 9, 12
Description: Sixteen mice with s.c. […] Each experiment was conducted in four mice.

[1] = Urine and faeces analysis by ICP-OES (Pt element); format: in vivo, mice; design: Pt in urine / Pt in feces: unit not given beside the values
Description: page 47: determined using ELISA kits according to manufacturer 's protocol. Determination of the blood circulation half-life. […], or CDDP (at a dose of 2.25 mg kg-1 Pt) was i.v. injected into healthy female BALB/c nude mice (6-8 weeks old). […] The collected blood was digested with concentrated HNO3 (65-70%, 2 mL) and HCl (36~38%, 1 mL) at 90 °C overnight. The residues were then diluted with 5 mL 2% HNO3 and 5% HCl solution, and the concentrations of Pt element were determined by ICP-OES, which were further applied to calculate the contents of Pt element in the blood. The plot of the percentage of Pt element remained in the blood versus injection time to yield the pharmacokinetic time. Urine and Faeces analysis. […] Urine and faeces were collected at 2 (for 0-2 h), 4 (for 2-4 h), 8 (for 4- 8 h) and 12 h (for […]), which were diluted in methanol and centrifuged at 3,600 × g for 10 min, followed by filtering via a 0.22 μm syringe filter. The solutions were analyzed by HPLC (660 nm detection) to characterize all the mCy-containing compounds. Using the established standard curves for […] Cy-COOH, the amount of each compound in the urine and faeces could be calculated, which were further applied to determine the percentage of them in the urine and faeces. The data were summarized in Supplementary Tables 5-8. […] Urine and faeces were collected and weighed. The urine and faeces were digested with concentrated HNO3 (65~70%) and HCl (36~38%) at 90 °C for 24 h. The solution was diluted to 5 mL 2% HNO3 and 5% HCl solution, and the concentration of Pt element was measured by ICP-OES, which was further applied to calculate the percentage of Pt in corresponding urine and faeces. The data were summarized in Supplementary Tables 9 and 10. 47

[2] = General design summary of signals and cytotoxicity (Fig. 1a)
From the text: P-CyPt is designed to (1) offer activatable near-infrared (NIR) FL and PA signals for bimodality imaging through ALP-mediated in situ self-assembly and (2) release CDDP for on-demand therapy via GSH-triggered disassembly (Fig. 1a). […] After systemic administration, P-CyPt as a small molecule can extravasate and penetrate deeply into tumor tissues (Fig. 1b). In tumor tissues that are membrane-bound ALP positive, rapid dephosphorylation of P-CyPt by the membrane-bound ALP generates CyPt, switching on NIR FL (λem = 710 nm) and PA signals (λ = 700 nm); moreover, CyPt with increased hydrophobicity is susceptible to self-assembly into Pt(IV) nanoparticles (Pt^IVNPs), which turns on another PA signal (λ = 750 nm) resulting from the aggregation-caused bathochromic shift. The on-site formed Pt^IVNPs can anchor on the cell membranes, which attenuate diffusion, prolong retention, and enhance translocation into cells[32],[33]. Within tumor cells, the abundant endogenous GSH can reduce Pt(IV) into Pt(II), producing negatively charged Cy-COOH that promotes NPs disassembly and accelerates release of CDDP intracellularly. This process dramatically raises intracellular CDDP’s concentration while depletes GSH’s level to effectively kill tumor cells. Moreover, the disassembly of Pt^IVNPs into Cy-COOH further increases NIR FL (called as “ON-ON”) as the aggregation-caused quenching (ACQ) effect is eliminated; however, the PA signal at 750 nm is turned off but the PA signal at 700 nm is kept at “ON” state. The sequential switches in NIR FL and PA bimodal imaging signals can allow P-CyPt to reliably monitor the ALP-triggered in situ self-assembly and GSH-driven disassembly process in vivo, facilitating to guide precise chemotherapy of tumors.

[3] = Urine and faeces analysis by ICP-OES (Pt element); format: in vivo, mice; design: Pt in urine / Pt in feces: unit not given beside the values; remark: listed apart in the source
[4] = i.v. 2.25 mg kg-1 Pt, 0-2 h, ICP-OES

With `[NH2][Pt]([NH2])([Cl])[Cl]` [CDDP, cisplatin] the “tumor volume growth on day 21” value (s.c. HeLa tumors) was ~ 15.8 fold, the “Percentage of Pt element excreted to the faeces” value (from here on “Percentage … to the faeces”) ([1]; 2-4 h) was 2.60 ± 0.45% and the “Percentage of Pt element excreted to the urine” value (shortened to “Percentage … to the urine”) ([1]; 2-4 h) was 10.94 ± 1.14%. The “Percentage … to the faeces” value ([1]; 4-8 h) was 4.55 ± 0.60%, the “Percentage … to the urine” value ([1]; 4-8 h) was 5.45 ± 0.94% and the “Percentage … to the urine” value ([1]; 8-12 h) was 3.48 ± 0.58%. The Pt in urine ([1]; Fig.6g, 0-2 h, mean of 3 mice) was 15.456, the Pt in urine ([1]; Fig.6g, 0-2 h, single mice) was 14.877 and 18.189 and 13.302 and the Pt in urine ([1]; Fig.6g, 2-4 h, mean of 3 mice) was 10.936. The Pt in urine ([1]; Fig.6g, 2-4 h, single mice) was 10.576 and 12.209 and 10.023, the Pt in urine ([1]; Fig.6g, 4-8 h, mean of 3 mice) was 5.452 and the Pt in urine ([1]; Fig.6g, 4-8 h, single mice) was 5.332 and 6.452 and 4.572. The Pt in urine ([1]; Fig.6g, 8-12 h, mean of 3 mice) was 3.482, the Pt in feces ([1]; Fig.6h, 0-2 h, mean of 3 mice) was 0.193 and the Pt in feces ([1]; Fig.6h, 0-2 h, single mice) was 0.190 and 0.242 and 0.148. The Pt in feces ([1]; Fig.6h, 2-4 h, mean of 3 mice) was 2.596, the Pt in feces ([1]; Fig.6h, 2-4 h, single mice) was 2.468 and 3.099 and 2.222 and the Pt in feces ([1]; Fig.6h, 4-8 h, mean of 3 mice) was 4.548. For the same compound, the Pt in feces ([1]; Fig.6h, 4-8 h, single mice) was 4.452 and 5.187 and 4.005, the Pt in feces ([1]; Fig.6h, 8-12 h, mean of 3 mice) was 2.704 and the “Pt accumulatively cleared (urine + faeces)” value ([1]; during 12 h) was ~ 45.3%. The Pt in feces ([1]; feces collected 0-2 h, mouse-1) was 0.190, the Pt in feces ([1]; feces collected 0-2 h, mouse-2) was 0.242 and the Pt in feces ([1]; feces collected 0-2 h, mouse-3) was 0.148. It also gave a Pt in feces ([1]; feces collected 2-4 h, mouse-1) of 2.468, a Pt in feces ([1]; feces collected 2-4 h, mouse-2) of 3.099 and a Pt in feces ([1]; feces collected 2-4 h, mouse-3) of 2.222. For the same compound, the Pt in feces ([1]; feces collected 4-8 h, mouse-1) was 4.452, the Pt in feces ([1]; feces collected 4-8 h, mouse-2) was 5.187 and the Pt in feces ([1]; feces collected 4-8 h, mouse-3) was 4.005. For the same compound, the Pt in feces ([1]; feces collected 8-12 h, mouse-1) was 2.646, the Pt in feces ([1]; feces collected 8-12 h, mouse-3) was 2.294 and the “Percentage … to the faeces” value [1, 4] was 0.19 ± 0.046%. For the same compound, the “Percentage … to the urine” value [1, 4] was 15.46 ± 2.49%, the “Pt in urine, mean” value ([1]; urine collected 0-2 h, mean of 3 mice) was 15.456 and the Pt in urine ([1]; urine collected 0-2 h, mouse-1) was 14.877. For the same compound, the Pt in urine ([1]; urine collected 0-2 h, mouse-2) was 18.189, the Pt in urine ([1]; urine collected 0-2 h, mouse-3) was 13.302 and the “Pt in urine, mean” value ([1]; urine collected 2-4 h, mean of 3 mice) was 10.936. It also gave a Pt in urine ([1]; urine collected 2-4 h, mouse-1) of 10.576, a Pt in urine ([1]; urine collected 2-4 h, mouse-2) of 12.209 and a Pt in urine ([1]; urine collected 2-4 h, mouse-3) of 10.023. For the same compound, the “Pt in urine, mean” value ([1]; urine collected 4-8 h, mean of 3 mice) was 5.452, the Pt in urine ([1]; urine collected 4-8 h, mouse-1) was 5.332 and the Pt in urine ([1]; urine collected 4-8 h, mouse-2) was 6.452. For the same compound, the Pt in urine ([1]; urine collected 4-8 h, mouse-3) was 4.572, the “Pt in urine, mean” value ([1]; urine collected 8-12 h, mean of 3 mice) was 3.482 and the Pt in urine ([1]; urine collected 8-12 h, mouse-1) was 3.482. The Pt in urine ([1]; urine collected 8-12 h, mouse-2) was 4.062, the Pt in urine ([1]; urine collected 8-12 h, mouse-3) was 2.903 and the Cytotoxicity [2] was “High”. For the same compound, the “Percentage … to the faeces” value ([3]; 8-12 h) was 2.70 ± 0.44%, the Pt in urine ([3]; Fig.6g, 8-12 h, single mice) was 3.482 and 4.062 and 2.903 and the Pt in feces ([3]; Fig.6h, 8-12 h, single mice) was 2.646 and 3.172 and 2.294. For the same compound, the Pt in feces ([3]; feces collected 8-12 h, mouse-2) was 3.172.
